Measured values from PubChem BioAssay (NCI).
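Briefly, cells in 96-well plates were exposed to five compound concentrations for 48 h, and endpoints were estimated by linear interpolation. At the GI50, growth is halved. TGI is the concentration that stops growth completely.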

Assays:
Assay in all cases: inhibition of tumour cell growth, NCI panel, 48 h
[1] = tested on: NCI-H23 lung
[2] = tested on: SK-MEL-28 melanoma
[3] = tested on: TK-10 renal
[4] = tested on: ACHN renal
[5] = tested on: SN12C renal
[6] = tested on: HOP-92 NSCLC
[7] = tested on: SW-620 colon
[8] = tested on: DU-145 prostate
[9] = tested on: HS 578T breast
[10] = tested on: HT29 colon

Cc1ccc(NC(=O)c2cc(S(=O)(=O)Nc3nnc(-c4ccccc4)c(-c4ccccc4)n3)c(SCc3ccccc3)cc2Cl)cc1
GI50 [1]: 18.1 µM
TGI [1]: 34.2 µM
GI50 [2]: 29.5 µM
TGI [2]: > 100 µM
GI50 [3]: 18.4 µM
TGI [3]: 40.6 µM
GI50 [4]: 17 µM
TGI [4]: 31.3 µM
GI50 [5]: 18.2 µM
TGI [5]: 43.9 µM
GI50 [6]: 18.8 µM
TGI [6]: 42.9 µM
GI50 [7]: 25.1 µM
TGI [7]: 55.4 µM
GI50 [8]: 20 µM
TGI [8]: 37.9 µM
GI50 [9]: 25.4 µM
TGI [9]: 57.4 µM

OC(c1ccccc1Br)(c1ccccc1Br)C(F)(F)F
TGI [1]: 78.3 µM
TGI [2]: 95.5 µM
TGI [3]: > 100 µM
TGI [4]: 38.3 µM
TGI [5]: 38.6 µM
TGI [7]: 36.2 µM
TGI [10]: 38.3 µM

CC1NOC(=O)C1N=Nc1ccc(Cl)cc1Cl (stereo not given)
TGI [1]: 64.2 µM
TGI [2]: > 100 µM
TGI [3]: 62.7 µM
TGI [4]: 55.5 µM
TGI [5]: 49.1 µM
TGI [6]: 44.3 µM
TGI [7]: 21.2 µM
TGI [10]: > 100 µM

CC12OC(=O)C(C#N)C1(C)C1C(=O)CCCC12 (stereo not given)
TGI [1]: > 100 µM
TGI [2]: > 100 µM
TGI [3]: > 100 µM
TGI [4]: > 100 µM
TGI [5]: > 100 µM
TGI [7]: > 100 µM

CCCCCCCCOCC(COC(=O)CCCCCCC)OC(=O)CCCCCCC (stereo not given)
TGI [1]: > 100 µM
TGI [2]: > 100 µM
TGI [3]: > 100 µM
TGI [4]: > 100 µM
TGI [5]: > 100 µM
TGI [6]: > 100 µM
TGI [7]: > 100 µM
TGI [10]: > 100 µM

C(=Nc1nc(SCc2ccccc2)nc2[nH]ncc12)c1cccs1
GI50 [1]: 66.4 µM
TGI [1]: > 100 µM
GI50 [2]: 31.3 µM
TGI [2]: > 100 µM
GI50 [3]: 44.3 µM
TGI [3]: > 100 µM
GI50 [4]: 43.6 µM
TGI [4]: > 100 µM
GI50 [5]: > 100 µM
TGI [5]: > 100 µM
GI50 [6]: 10.7 µM
TGI [6]: 50 µM
GI50 [7]: 47.2 µM
TGI [7]: > 100 µM
GI50 [8]: 43 µM
TGI [8]: > 100 µM
GI50 [10]: 38.2 µM
TGI [10]: > 100 µM

C1CCC(N=C2N(C3CCCCC3)C(=NC3CCCCC3)N2C2CCCCC2)CC1
TGI [1]: > 100 µM
TGI [2]: > 100 µM
TGI [3]: > 100 µM
TGI [4]: > 100 µM
TGI [5]: > 100 µM
TGI [6]: > 100 µM
TGI [7]: > 100 µM
TGI [10]: > 100 µM

COC(=O)C(C(=O)C(=O)Nc1c(Cl)cc([N+](=O)[O-])cc1Cl)c1csc(-n2nc(C3=CCCCC3)cc2-c2ccccc2)n1 (stereo not given)
TGI [3]: > 100 µM
TGI [4]: > 100 µM
TGI [5]: > 100 µM
TGI [6]: 77.7 µM
TGI [7]: > 100 µM
TGI [10]: > 100 µM

COc1ccc(/C=C2\C(=O)N(NC(C)=O)c3ccccc32)cc1
TGI [1]: > 100 µM
TGI [2]: > 100 µM
TGI [3]: > 100 µM
TGI [4]: > 100 µM
TGI [5]: > 100 µM
TGI [6]: > 100 µM
TGI [7]: > 100 µM
TGI [10]: > 100 µM

COc1cc(-c2nccc3[nH]c(-c4ccc5cc[nH]c5c4)nc23)cc(OC)c1OC
GI50 [1]: < 0.01 µM
TGI [1]: 4.2 µM
GI50 [3]: 1.13 µM
TGI [3]: 7.88 µM
GI50 [4]: < 0.01 µM
TGI [4]: 3.02 µM
GI50 [5]: < 0.01 µM
TGI [5]: 9.93 µM
GI50 [6]: 0.306 µM
TGI [6]: 4.98 µM
GI50 [7]: < 0.01 µM
TGI [7]: 1.6 µM
GI50 [8]: < 0.01 µM
TGI [8]: 11.4 µM
GI50 [9]: < 0.01 µM
TGI [9]: 10.3 µM
GI50 [10]: < 0.01 µM
TGI [10]: 1.08 µM
